In publication PMC8482623 (Nature structural & molecular biology, 2020):

Experiments:
[1] = target: T1, mBcs1 (full-length mouse Bcs1; mBcs1-His) (Mus musculus, UniProt Q9CZP5); test: blue-native PAGE band shift; format: binding; conditions: conformational change seen as band shift
T1 sequence (Q9CZP5 1-418): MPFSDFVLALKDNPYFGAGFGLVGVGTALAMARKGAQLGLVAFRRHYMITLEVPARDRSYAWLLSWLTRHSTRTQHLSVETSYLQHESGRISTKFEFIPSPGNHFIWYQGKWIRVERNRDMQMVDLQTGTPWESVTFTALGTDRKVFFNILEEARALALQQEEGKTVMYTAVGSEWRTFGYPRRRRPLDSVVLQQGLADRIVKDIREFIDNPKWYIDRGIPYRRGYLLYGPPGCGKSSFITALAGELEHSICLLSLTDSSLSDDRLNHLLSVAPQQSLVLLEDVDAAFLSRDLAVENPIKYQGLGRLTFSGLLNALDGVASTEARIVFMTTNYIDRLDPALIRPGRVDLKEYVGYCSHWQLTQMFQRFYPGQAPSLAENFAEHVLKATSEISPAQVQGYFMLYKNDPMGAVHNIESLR

ΔNmBcs1 = ΔNmBcs1 (Mus musculus, UniProt Q9CZP5); test: X-ray crystal structure, […] Å; conditions: 2 mM AMP-PNP, 20 mM MgCl2, pH 7.5; nucleotide-binding site

Compound: Nc1ncnc2c1ncn2[C@@H]1O[C@H](COP(=O)(O)OP(=O)(O)NP(=O)(O)O)[C@@H](O)[C@H]1O [AMP-PNP]
- blue-native PAGE band shift [1]: incubation of ATPγS or AMP-PNP (nonhydrolyzable ATP) caused a shift in the protein band
- X-ray crystal structure, 2.2 Å (ΔNmBcs1): yielding a heptameric structure with clearly visible bound AMP-PNP
